Measured values taken from patent publication US12319699B2, “L-proline sulfonamide derivatives comprising pyrazolo[4,3-e]tetrazolo[4,5-b][1,2,4]triazine system, method of manufacturing thereof, uses thereof and pharmaceutical composition comprising the same” (UNIWERSYTET MEDYCZNY W BIALYMSTOKU, priority 2018, dated 2025).

How the values were obtained:
DLD-1 xenografts = test: Tumour growth in mice with xenografts; format: in vivo; conditions: mice with DLD-1 xenografts
Method: (§1) The second stage of the study was carried out with the use of animals (Cby.Cg-Foxn1nu/J mice, females) (Jackson Laboratory, USA). […] All procedures were carried out in accordance with the guidelines for experiments in animals and a protocol approved by the Local Ethics Committee (Resolution No. August 2018).
(§2) The studies in in vivo conditions were carried out in the Centre of Experimental Medicine of the Medical University of Bialystok. It is a modern institution which ensures a high standard of SPF barrier animal facilities. Animals are housed in a room with […], in the optimal temperature of 22° C., 55% air humidity, with fifteen air changes per hour (with the speed not exceeding 0.3 m/s) and 12:12 light-dark cycle. The animals were under 24-hour monitoring and period controls of both the animals (in accordance with FELASA recommendations) and the rooms in which they were housed were carried out. The Centre for Experimental Medicine has a Good Laboratory Practice (GLP) certificate.
(§3) During the initial studies the mice were divided into two groups.
(§4) After the first week, when tumours reached about 5 mm in diameter, i.e. the size which according to literature data is suitable for carrying out further steps of examination, the mice began receiving subcutaneous injections of the sulfonamide derivative of 7-methyl-5-phenyl-pyrazolo[4,3-e]tetrazolo[4,5-b][1,2,4]triazine comprising 4-hydroxy-L-proline methyl ester in the sulfonamide group according to the invention (the compound of Formula 3) in a dose of 50 μg/kg once a day for two weeks. The moment of administration of the compound was marked as time 0. The control group was constituted by animals that received subcutaneously 50 μl of 10% DMSO in PBS (the solvent for the compound of Formula 3). Before the administration of the sulfonamide derivative of 7-methyl-5-phenyl-pyrazolo[4,3-e]tetrazolo[4,5-b][1,2,4]triazine comprising 4-hydroxy-L-proline methyl ester in the sulfonamide group according to the invention (time 0), after the first week (time 1) and the second week (time 2) of administering this compound, the sizes of tumours were measured in two dimensions by means of a digital calliper. The volume of tumours was expressed in mm3 in accordance with the calculations that were described by Feldman et al. (Feldman J P. Goldwasser R. Mark S. Schwartz J. Orion I. JAQM. 2009.4.455-462).

HT-29 xenografts = test: Tumour growth in mice with xenografts; format: in vivo; conditions: mice with HT-29 xenografts
Method: as §1, §2, §3, §4

[1] = 50 μg/kg s.c. once a day for two weeks, p<0.05
[2] = 50 μg/kg s.c. once a day, after the second week, p<0.001

## COC(=O)C1CC(O)CN1S(=O)(=O)c1ccc(-n2nc(C)c3nc4nnnn4nc32)cc1 (stereo not shown) [Compound of Formula 3, Methyl 4-hydroxy-1-[4-(7-methyl-5H-pyrazolo[4,3-e]tetrazolo[4,5-b][1,2,4]triazyn-5-yl)phenylsulfonyl]pyrrolidine-2-carboxylate]
DLD-1 xenografts; [1]
  tumour weight post mortem vs control: Statistically significant reduction in tumour weight
DLD-1 xenografts; [2]
  inhibition of tumour growth (tumour volume) vs control: statistically significant inhibition of tumour growth
HT-29 xenografts; [1]
  tumour weight post mortem vs control: Statistically significant reduction in tumour weight
HT-29 xenografts; [2]
  inhibition of tumour growth (tumour volume) vs control: statistically significant inhibition of tumour growth
